{
  "source": "patent US11154507B2",
  "about": "“Freeze-dried aripiprazole formulation” (OTSUKA PHARMACEUTICAL CO., LTD., priority 2011, dated 2021)",
  "origin": "cited, not measured here",
  "conditions": "room temperature",
  "data": [
    {"molecule": "O=C1CCc2ccc(OCCCCN3CCN(c4cccc(Cl)c4Cl)CC3)cc2N1", "note": "[Aripiprazole]", "values": [
      {"measurement": "solubility in water", "value": "< 1", "unit": "µg/mL"}
    ]}
  ]
}
